Experimental data from patent US12310967B2, “Compositions and methods of treatment for neurological disorders comprising motor neuron diseases” (Gliapharm SA, priority 2017, dated 2025).
Where a name gives a salt, the structure may show the parent alone.

What was measured:
Type in all cases: cell-based, mouse
primary astrocytes [1] = test: Intracellular glycogen quantification; conditions: Prestwick hits, 10 μM, 3 h
Description: For glycogen dosage, a protein dosage was first performed in order to assess whether harvested astrocytes from primary cell cultures yielded enough and equivalent amounts of proteins comparing each replicate, and to ensure that the obtained differences in glycogen quantities were due to drug action and not to inner protein quantities.
Astrocytes used for these dosages were previously grown in 6-well plates for 17 days and stimulated with Vehicle (DMSO) or drug of interest (1 μM to 100 μM) for 180 min, at 37° C. 5% CO2/95% air in D5030 complete medium. Medium was removed and replaced with 600 μl of 30 mM Tris HCl, and stored at −20° C.
Proteins were dosed using the micro BCA Protein Assay kit (Thermo Scientific), as described in the manufacturer's instructions. Briefly, thawed cells were sonicated and 5 μl aliquots were placed in a transparent 96-well plate, to which we added 25 μl 30 mM Tris HCl, 70 μl H2O and 100 μl of a BCA mix (made as described in manufacturer's guidelines). After a 120 min-incubation at 37° C., absorbance was measured with Safire 2 spectrophotometer at a wavelength of 562 nm, and protein quantities were determined from a standard curve of Bovine Serum Albumin (BSA).
Glycogen was quantified using a 250 μl-aliquot of the same stimulated, thawed, and sonicated cells. After an incubation period of 30 min at 90° C. and 400 rpm, 28 μl of an acetic acid/sodium acetate (both from Sigma) 0.1M pH 4.6 buffer was added to each aliquot, which was then separated in two. Each split aliquot received whether 5 μl of amyloglucosidase (Roche) or 5 μl H2O, and all cell solutions were incubated for 120 min in a shaking 37° C.-waterbath. After a centrifugation at 16'000G for 5 min, 20 μl of supernatant were placed 96-well plate, to which 150 μl of a mix containing 0.67 mM ATP (Roche), 0.67 mM NADP (Roche), 1.8% hexokinase/glucose-6-phosphate dehydrogenase (Roche) and 0.1M Tris Buffer-HCl/3.3 mM magnesium (Fluka)/pH 8.1 buffer was added. Fluorescence was measured with Safire 2 spectrophotometer (340 nm excitation/440 nm emission). Glycogen concentration was obtained by substracting glucose value of samples with amyloglucosidase to samples without amyloglucosidase, and were expressed relative to the amount of proteins previously determined.
Levels of intracellular glycogen in astrocytes were measured at 3 h after stimulation with 20 Hits from the Prestwick library (10 μM each), as shown in FIG. 2. n=6-10; Ctrl pos. is glutamate (0.5 mM). Statistical analysis consisted in ANOVA followed by Fisher LSD post-hoc test for pair-wise comparisons.
(§1) Statistical analysis consisted in ANOVA followed by Fisher LSD post-hoc test for pair-wise comparisons.

primary astrocytes [2] = test: High throughput screening (HTS) for lactate secretion: acidification of extracellular medium (SNARF5); parameters: key to Score / HTS Score (SNARF5) / Score_SNARF: fraction of plate positive-control activity (1 = 100%); conditions: Appendix I, primary screening confirmation (SNARF5)
Description: Primary cultures of cerebrocortical astrocytes were obtained from 1-2-day-old OF1 mouse pups (Charles River Laboratories). Briefly, cortices were isolated and minced in small pieces under a dissecting microscope. The cells were incubated for 30 min at 37° C. in a solution containing 20 U/ml of papain enzyme (Worthington Biochemical), L-cysteine 1 mM (Sigma), and 10 kU/ml DNase I (Worthington Biochemical) for an enzymatic dissociation. Papain activity was stopped by the addition of fetal calf serum (FCS) to the solution, and a single-cell suspension was then obtained by mechanical dissociation, which consisted in cells trituration in a DMEM (D7777, Sigma-Aldrich) medium (supplemented with 44 mm NaHCO3, and 10 ml/L antibiotic/antimycotic solution) containing 10% FCS. The cells were seeded at an average density of 6×10^4 cells/cm^2 in poly-D-lysine-coated 96, 12 or 6-well culture plates, depending on their use, and incubated at 37° C. in a humidified atmosphere containing 5% CO2/95% air. Culture medium was renewed twice per week. Cells were stimulated and harvested between DIV14 and DIV17, when confluence and cell growth were optimal.
Secretion of lactate in a high-throughput screening (HTS) fashion was measured indirectly through the acidification of extracellular medium. To this end, primary astrocytes grown in 96-well plates for 17 days were stimulated with the compounds as listed herein.
After washing the cells twice with stimulation medium (DMEM (D5030, Sigma), 3 mM NaHCO3 and 5 mM Glucose) at 37° C., cells were stimulated with the compounds at a final concentration of 10 uM (1% DMSO final) in 50 ul per well of stimulation medium supplemented with 10 uM of the extracellular pH sensor SNARF-5F %-(AND-6)-CAR (Life Technologies Corporation). Each compound was tested in two different plates for duplicates.
After 90 min stimulation, fluorescence was read at exc. (excitation) 480 nm/emm. (emission) 580 nm and at exc 480 nm/emm. 630 nm. The ratio of fluorescence between 630 nm and 580 emission values, which represents extracellular pH, was calculated.
In each plate, 8 wells were used for negative controls (DMSO) and 8 wells were used for positive controls (CCCP 2 uM in DMSO). Z prime values were calculated for each of the plates tested and values<0 were discarded.
The average and SD of compounds' values tested in duplicates were calculated, and compound was noted as HIT when the difference between compound's average and negative control's average was greater than three times the sum of compound's SD and negative controls' SD. Only scores greater than 40% were considered as lead Hits for the CDC54K library; for the remaining libraries, all hits were considered. Scores are calculated as the % of activity compared to the positive control in each plate (which is 100%).
Primary screening hits were cherry picked on new plates and confirmed for SNARF5 effect, after having discarded those compounds that are fluorescent (exc. 480 nm/emm. 580 nm or 630 nm) before stimulation. Extracellular medium was next analyzed for extracellular lactate quantification for secondary screening.
Identification of lactate-enhancing drugs with high throughput screening (HTS) experiments on astrocytes primary cultures using extracellular pH dye (SNARF5F 5-(and-6)-carboxylic acid) for 90 min. The procedure is described in Material and Methods (2. Cell culture, 2.1. HTS for lactate secretion and 2.2. Extracellular lactate quantification).
The procedure was performed as follows: • Primary screening: acidification of the extracellular medium • Primary screening confirmation: acidification of the extracellular medium, removal of compounds with fluorescent activity at exc. 480 nm/emm. 580 nm or 630 n. • Secondary screening: dosage of extracellular lactate

primary astrocytes [3] = test: Extracellular lactate quantification; conditions: Appendix I, secondary screening: extracellular lactate
Description: Secretion of L-lactate was determined in the extracellular medium of 96-well plated astrocytes after 90 min stimulation (at 37° C., in 5% CO2/95% air conditions) with the drug of interest. The stimulation medium was composed of D5030 medium (completed with D-glucose 5 mM and 44 mM sodium bicarbonate) for 90 min in concentrations ranging from 0 to 100 μM.
Briefly, 200 μl of a Glycine (Sigma)-Semicarbazide (Acros) 0.2M pH 10 buffer containing 3 mM NAD (Roche) and LDH 14 U/ml (Roche) was added to each well of a 96-well plate containing 30 μl aliquots complemented with 20 μl fresh complete D5030 medium. Samples were incubated at 37° C. for 1 h. After samples cooled down at room temperature, the fluorescence intensity (340 nm excitation/450 nm emission) that represents the amount of NADH produced was measured, and lactate concentration values were determined from a standard curve of L-lactate.
as §1
Levels of lactate secreted by astrocytes were measured in the extracellular medium at 90 min after stimulation with hits (molecules) from the CDC54K library.

## O=C(COc1ccc(Cl)cc1)N1CCN(Cc2ccc3c(c2)OCO3)CC1 [Fipexide hydrochloride]
Primary astrocytes [1]
  Glycogen (statistical significance of glycogen degradation): ns

## Cc1cccc(NS(=O)(=O)c2cc(-c3ccnn3C)cs2)c1 [L924-0884]
Primary astrocytes [2]
  Score_SNARF: 0.7507
Primary astrocytes [3]
  Score_LACTATE: 0.7362

## Cn1nccc1C(=O)N1CCC(Nc2ncnc3c2CCC3)C1 (centres unmarked) [T636-2425]
Primary astrocytes [2]
  Score_SNARF: 0.2725
Primary astrocytes [3]
  Score_LACTATE: 0.3027

## c1csc(C(Nc2ncnc3sccc23)C2CC2)c1 (centres unmarked) [T5713637]
Primary astrocytes [2]
  Score_SNARF: 1.184
Primary astrocytes [3]
  Score_LACTATE: 1.287

## CC(=O)N1CCCc2cc(S(=O)(=O)NCc3ccccc3)ccc21 [G855-0210]
Primary astrocytes [2]
  Score_SNARF: 0.3123
Primary astrocytes [3]
  Score_LACTATE: 0

## CC1c2ccsc2CCN1c1ncnc2sccc12 (centres unmarked) [T5630309]
Primary astrocytes [2]
  Score_SNARF: 0.4816
Primary astrocytes [3]
  Score_LACTATE: 0.7

## CC(=O)c1cccc(NC(=O)C(C)Sc2ncnc3ccsc23)c1 (centres unmarked) [T5627721]
Primary astrocytes [2]
  Score_SNARF: 0.7385
Primary astrocytes [3]
  Score_LACTATE: 0.9487

## CC(C)OCCCNc1ncnc2c1CCC2 [T636-0027]
Primary astrocytes [2]
  Score_SNARF: 0
Primary astrocytes [3]
  Score_LACTATE: 0

## Cc1cccc(NS(=O)(=O)c2cc(-c3noc(C)n3)cs2)c1 [L287-0220]
Primary astrocytes [2]
  Score_SNARF: 0.5829
Primary astrocytes [3]
  Score_LACTATE: 1.578

## O=C(c1ccco1)N1CCCn2nc(-c3ccc(C(F)(F)F)cc3)cc2C1 [T200-0370]
Primary astrocytes [2]
  Score_SNARF: 0.3804
Primary astrocytes [3]
  Score_LACTATE: 0.2896

## CNC(=O)C1CCCN(c2ncnc3oc(C)c(C)c23)C1 (centres unmarked) [F228-0541]
Primary astrocytes [2]
  Score_SNARF: 0.3609
Primary astrocytes [3]
  Score_LACTATE: 0

## OC1(c2ccccc2)C[N+](c2ccc(Cl)cc2)=C2CCCCN21.[Br-] (centres unmarked) [F0524-0488]
Primary astrocytes [2]
  Score_SNARF: 0.3489
Primary astrocytes [3]
  Score_LACTATE: 0

## O=S(=O)(Nc1ccc(F)c(Cl)c1)c1ccc2ccccc2c1 [T5231424]
Primary astrocytes [2]
  Score_SNARF: 0.3707
Primary astrocytes [3]
  Score_LACTATE: 0.5258

## Cc1cccc([N+]2=C3CCCCN3C(O)(c3ccc(Cl)cc3)C2)c1 (centres unmarked) [K404-0800]
Primary astrocytes [2]
  Score_SNARF: 0.7386
Primary astrocytes [3]
  Score_LACTATE: 0.8385

## COc1ccc(C2SCCN2S(=O)(=O)c2cccc(C)c2)cc1OC (centres unmarked) [T5463658]
Primary astrocytes [2]
  Score_SNARF: 0.4683
Primary astrocytes [3]
  Score_LACTATE: 0.3773

## Cc1cccc([N+]2=C3CCCCN3C(O)(c3ccc(F)cc3)C2)c1C (centres unmarked) [K404-0685]
Primary astrocytes [2]
  Score_SNARF: 0.6562
Primary astrocytes [3]
  Score_LACTATE: 0.6821

## COc1ccc(CN2CCN(c3ncnc4c3CCC4)CC2)cc1OC [T636-2007]
Primary astrocytes [2]
  Score_SNARF: 0.8596
Primary astrocytes [3]
  Score_LACTATE: 0.9841

## Cc1ccccc1NS(=O)(=O)c1ccc2onc(C(=O)N3CCCCC3)c2c1 [L995-0405]
Primary astrocytes [2]
  Score_SNARF: 0.3724
Primary astrocytes [3]
  Score_LACTATE: 0

## Cc1oc2ncnc(N3CCCC(C(=O)NCc4ccccn4)C3)c2c1C (centres unmarked) [F228-0350]
Primary astrocytes [2]
  Score_SNARF: 1.011
Primary astrocytes [3]
  Score_LACTATE: 1.023

## Cc1nc2ccc(NS(=O)(=O)c3ccccc3F)cc2s1 [T5511047]
Primary astrocytes [2]
  Score_SNARF: 0.5545
Primary astrocytes [3]
  Score_LACTATE: 0.3825

## CC(=O)c1ccc(NS(=O)(=O)c2cc(-c3noc(C4CCCC4)n3)cs2)cc1 [L287-1577]
Primary astrocytes [2]
  Score_SNARF: 1.059
Primary astrocytes [3]
  Score_LACTATE: 1.215

## Cc1oc2ncnc(N3CCCC(C(=O)NCc4ccccc4)C3)c2c1C (centres unmarked) [F228-0365]
Primary astrocytes [2]
  Score_SNARF: 0.9429
Primary astrocytes [3]
  Score_LACTATE: 0.9001

## Cc1nc(-c2cccc(NS(=O)(=O)c3ccc(N4CCCC4=O)cc3)c2)cs1 [T5599698]
Primary astrocytes [2]
  Score_SNARF: 0.8856
Primary astrocytes [3]
  Score_LACTATE: 0.7496

## c1ccc(C(Nc2ncnc3sccc23)C2CC2)cc1 (centres unmarked) [T6016487]
Primary astrocytes [2]
  Score_SNARF: 1.081
Primary astrocytes [3]
  Score_LACTATE: 1.857

## O=S(=O)(NC1CCN(c2ncnc3c2CCC3)C1)c1ccccc1 (centres unmarked) [T636-1250]
Primary astrocytes [2]
  Score_SNARF: 0.8587
Primary astrocytes [3]
  Score_LACTATE: 0.8982

## CCNC(=O)C1CCCN(c2ncnc3oc(C)c(C)c23)C1 (centres unmarked) [F228-0534]
Primary astrocytes [2]
  Score_SNARF: 0.5203
Primary astrocytes [3]
  Score_LACTATE: 0.3387

## COc1cccc(CNc2ncnc3c2CCC3)c1 [T636-0134]
Primary astrocytes [2]
  Score_SNARF: 0
Primary astrocytes [3]
  Score_LACTATE: 0.3283

## COc1ccccc1[N+]1=C2CCCCCN2C(O)(c2ccccc2)C1 (centres unmarked) [K404-0838]
Primary astrocytes [2]
  Score_SNARF: 0.8328
Primary astrocytes [3]
  Score_LACTATE: 1.051

## COc1cccc(-c2cc3n(n2)CCCN(Cc2ccncc2)C3)c1 [T202-0973]
Primary astrocytes [2]
  Score_SNARF: 0.2834
Primary astrocytes [3]
  Score_LACTATE: 0

## COc1ccc(C2SCCN2S(=O)(=O)c2ccc(C)c(C)c2)cc1OC (centres unmarked) [F1462-0491]
Primary astrocytes [2]
  Score_SNARF: 0
Primary astrocytes [3]
  Score_LACTATE: 0

## O=S(=O)(Nc1ccc2[nH]ncc2c1)c1ccc(C(F)(F)F)cc1 [T5653029]
Primary astrocytes [2]
  Score_SNARF: 0.5642
Primary astrocytes [3]
  Score_LACTATE: 1.354

## CN(C)Cc1cccc(CNc2ncnc3sccc23)c1 [T6783542]
Primary astrocytes [2]
  Score_SNARF: 0.9183
Primary astrocytes [3]
  Score_LACTATE: 1.033

## O=c1n(CCCN2CCN(c3cccc(Cl)c3)CC2)nc2ccccn12 [Trazodone hydrochloride]
Primary astrocytes [1]
  Glycogen (statistical significance of glycogen degradation): ns

## FC(F)(F)c1cccc(CNc2ncnc3sccc23)c1 [T5346988]
Primary astrocytes [2]
  Score_SNARF: 0.9569
Primary astrocytes [3]
  Score_LACTATE: 0.9327

## COc1ccc(Cl)cc1S(=O)(=O)NCc1ccncc1 [F0376-0203]
Primary astrocytes [2]
  Score_SNARF: 0
Primary astrocytes [3]
  Score_LACTATE: 0
